In patent US20210284622A1, “BIOACTIVE POLYMERS WITH ANTI=FOULING PROPERTIES FOR MEDICAL AND DENTAL USES” (OREGON HEALTH & SCIENCE UNIVERSITY, priority 2020, published 2021):

Experiments:
Type in all cases: cell-based
GtfC mutants = test: Crystal violet biofilm quantification in four strains of S. mutans (Gtf mutants); conditions: FIG. 5
Procedure: FIG. 5 represents quantification of biofilms grown using four strains of S. mutans and colorimetrically quantified CV (Absat562 nm) to quantity the biofilm. Note that AGTF denotes which Gtf enzyme(s) are not expressed by the strain.
(§1) Eight G43 derivatives (G43, G43TEG, G43-TEG-MMA, G43-A2-OMe, G43-A-NH2, G43B-Furan, G43-B1-OMe, G43-C3-OMe, and G16) were synthesized de novo screened against S. mutans for biofilm inhibition. The compounds were dissolved in DMSO and serially diluted in H2O at 50 μM, then added to S. mutans cultures (TH medium with sucrose) & incubated for 96 h at 37° C. aerobically. Biofilms were assayed for bacterial viability (metabolic activity via a renilla-reporter S. mutans—Merritt2016). Biofilms were stained with crystal violet (CV), washed 3× with DI H2O, and then the CV was volumetrically extracted to colorimetrically determine the quantity of biofilm. Next, biofilms were washed 3× with DI H2O, then sterilized with EtOH, azeotropically dried. Insoluble biofilm was chemically digested by 1) methylation, 2) acid depolymerization, 3) reduction, and 4) acylation, resulting in methylated alditol acetates for polysaccharide connectivity determination by GC/MS. Results were analyzed with one-way ANOVA/Tukey's test (α=0.05).

S. mutans [1] = test: Minimum inhibitory concentration (MIC) against S. mutans, serial dilution, TH medium plus sucrose, 96 h; conditions: Streptococcus mutans, S. mutans in TH medium plus sucrose, 37° C. aerobically
Procedure: Methods: G43, and its non-binding counterpart, G43TEG (N-(2-carbamoyl-4-(2-(2-(2-(2-hydroxyethoxy)ethoxy)ethoxy)ethoxy)phenyl)-5-nitrobenzo[b]thiophene-2-carboxamide), were synthesized and minimum inhibitory concentration (MIC) against S. mutans was established. The compounds were serially diluted in DMSO to 400, 200, 100, 50, 25 and 12.5 then added to S. mutans grown in TH medium plus sucrose. Cultures were incubated for 96 h at 37° C. aerobically. Supernatants with planktonic cells and biofilms were assayed separately for metabolic activity using S. mutans carrying a renilla luciferase reporter. G43 or G43TEG were added at 4 wt % into 50:50 BisGMA/TEGDMA and 70 wt % filler. 0.2 wt % BAPO, 0.05 wt % BHT were used as the photoinitiator and inhibitor, respectively. Polymerization kinetics were assessed for 5 min by near-IR in discs (4 mm by 10 mm diameter), cured with a LED light source (700 mW/cm2, 30 s). Discs were then immersed in deionized H2O for 7 days, with extracted monomers collected every 24 h. Results were analyzed with one-way ANOVA/Tukey's test (α=0.05). […] Polymerizations of dental resins were relatively unaffected by 4% G43 or G43TEG (FIG. 1).

S. mutans [2] = test: Biofilm quantification by crystal violet (CV) stain, Abs at 562 nm; conditions: 50 μM, FIGS. 3 & 4
Procedure: FIG. 3 Represents quantification of biofilms grown under different inoculants (50 μM) using crystal violet (CV) stain: (top) Biofilm morphology as visualized after CV stain, (chart) Colorimetrically quantified CV (Absat562 nm) to quantity the biofilm.
FIG. 4 represents quantification of biofilms grown under different inoculants (50 μM) using crystalviolet (CV) stain: (top) Biofilm morphology as visualized after CVstain, (chart) Colorimetrically quantified CV (Absat562 nm) to quantity the biofilm.
as §1, with “Insoluble biofilm was chemically digested by 1) methylation, 2) acid depolymerization, 3) reduction, and 4) acylation, resulting in methylated alditol acetates for polysaccharide connectivity determination by GC/MS.” left out

S. mutans [3] = test: Biofilm bacterial viability by metabolic activity, renilla luciferase reporter S. mutans; conditions: at MIC, FIG. 1
From the text: FIG. 2 represents S. mutans bacterial viability as measured using a metabolic activity via arenilla-reporter S. mutans(Merritt2016).
Methods: G43, and its non-binding counterpart, G43TEG (N-(2-carbamoyl-4-(2-(2-(2-(2-hydroxyethoxy)ethoxy)ethoxy)ethoxy)phenyl)-5-nitrobenzo[b]thiophene-2-carboxamide), were synthesized and minimum inhibitory concentration (MIC) against S. mutans was established. The compounds were serially diluted in DMSO to 400, 200, 100, 50, 25 and 12.5 then added to S. mutans grown in TH medium plus sucrose. Cultures were incubated for 96 h at 37° C. aerobically. Supernatants with planktonic cells and biofilms were assayed separately for metabolic activity using S. mutans carrying a renilla luciferase reporter. […] Polymerization kinetics were assessed for 5 min by near-IR in discs (4 mm by 10 mm diameter), cured with a LED light source (700 mW/cm2, 30 s). […] Results were analyzed with one-way ANOVA/Tukey's test (α=0.05). […]
Eight G43 derivatives (G43, G43TEG, G43-TEG-MMA, G43-A2-OMe, G43-A-NH2, G43B-Furan, G43-B1-OMe, G43-C3-OMe, and G16) were synthesized de novo screened against S. mutans for biofilm inhibition. […] Biofilms were stained with crystal violet (CV), washed 3× with DI H2O, and then the CV was volumetrically extracted to colorimetrically determine the quantity of biofilm. […] Results were analyzed with one-way ANOVA/Tukey's test (α=0.05).

| Compound | biofilm reduction in GtfC mutants (GtfC mutants) | MIC (S. mutans [1]) [µM] | biofilm production (S. mutans [2]) | reduction of viable biofilm cells (S. mutans [3]) |
| --- | --- | --- | --- | --- |
| NC(=O)c1ccccc1NC(=O)c1cc2cc([N+](=O)[O-])ccc2s1 [G43, N-(2-carbamoylphenyl)-5-nitrobenzo[b]thiophene-2-carboxamide] | biofilm reduction efficacy | 25 to 50 | significantly reduced | significant reduction |
| NC(=O)c1cc(OCCOCCOCCOCCO)ccc1NC(=O)c1cc2cc([N+](=O)[O-])ccc2s1 [G43TEG, N-(2-carbamoyl-4-(2-(2-(2-(2-hydroxyethoxy)ethoxy)ethoxy)ethoxy)phenyl)-5-nitrobenzo[b]thiophene-2-carboxamide] | biofilm reduction efficacy | 25 to 50 | significantly reduced | significant reduction |
